According to patent US11492335B2, “Aryl or heteroaryl triazolone derivatives or salts thereof, or pharmaceutical compositions comprising the same” (YUHAN CORPORATION, priority 2018, dated 2022):
Structures can show the parent of a compound that is named as a salt.

Legend:
Assay type in all cases: biochemical
recombinant human VAP-1 = biological target: T1, recombinant human VAP-1 (Homo sapiens, UniProt Q16853); assay: Activity on recombinant human VAP-1, Amplex Red HRP-coupled hydrogen peroxide assay, benzylamine substrate; settings: recombinant human VAP-1, benzylamine substrate, 30 min preincubation at 37° C.; read-out: Inhibitory Activity (IC50, nM) human VAP-1
T1 construct: purchased R&D systems
T1 sequence (Q16853 1-763): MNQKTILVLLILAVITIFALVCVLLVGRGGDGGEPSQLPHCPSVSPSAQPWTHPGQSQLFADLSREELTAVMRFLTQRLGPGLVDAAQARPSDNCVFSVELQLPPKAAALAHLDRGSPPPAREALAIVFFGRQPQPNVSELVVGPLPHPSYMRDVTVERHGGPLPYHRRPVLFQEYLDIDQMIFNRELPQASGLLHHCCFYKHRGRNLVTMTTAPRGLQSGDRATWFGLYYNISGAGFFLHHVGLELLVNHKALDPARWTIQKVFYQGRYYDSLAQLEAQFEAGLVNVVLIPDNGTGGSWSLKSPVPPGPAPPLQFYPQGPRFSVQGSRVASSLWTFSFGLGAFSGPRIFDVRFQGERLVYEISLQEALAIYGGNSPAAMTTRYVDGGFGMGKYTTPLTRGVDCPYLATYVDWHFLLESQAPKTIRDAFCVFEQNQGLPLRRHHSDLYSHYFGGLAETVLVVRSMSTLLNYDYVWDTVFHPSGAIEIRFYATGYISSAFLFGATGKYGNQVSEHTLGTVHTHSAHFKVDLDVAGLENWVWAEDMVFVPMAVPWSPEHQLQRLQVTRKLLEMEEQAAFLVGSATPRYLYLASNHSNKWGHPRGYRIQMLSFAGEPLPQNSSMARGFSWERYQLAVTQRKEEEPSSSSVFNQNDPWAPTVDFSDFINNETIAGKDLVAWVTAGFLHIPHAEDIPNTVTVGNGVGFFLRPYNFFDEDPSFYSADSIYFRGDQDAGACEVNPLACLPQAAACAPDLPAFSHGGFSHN
Summary of the method: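 Compounds were preincubated with purified enzyme in 50 mM sodium phosphate pH 7.4 at 37 °C for 30 min, then 200 uM Amplex Red, 1 mM benzylamine and 1 U/mL HRP were added. Resorufin fluorescence (ex 544/em 590 nm) was followed over 1-2 h; IC50 came from 4-parameter fits of signal-rate inhibition.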

[1] = biological target: T2, recombinant human DAO (diamine oxidase) (Homo sapiens, UniProt P19801); assay: Activity on recombinant human DAO, Amplex Red method, 1 mM putrescine substrate; settings: recombinant human DAO, 1 mM putrescine; * = between 10 and 100 nM, ** = between 300 and 1000 nM; read-out: Inhibitory Activity (IC50, nM) DAO
T2 construct: purchased R&D systems
T2 sequence (P19801 20-751): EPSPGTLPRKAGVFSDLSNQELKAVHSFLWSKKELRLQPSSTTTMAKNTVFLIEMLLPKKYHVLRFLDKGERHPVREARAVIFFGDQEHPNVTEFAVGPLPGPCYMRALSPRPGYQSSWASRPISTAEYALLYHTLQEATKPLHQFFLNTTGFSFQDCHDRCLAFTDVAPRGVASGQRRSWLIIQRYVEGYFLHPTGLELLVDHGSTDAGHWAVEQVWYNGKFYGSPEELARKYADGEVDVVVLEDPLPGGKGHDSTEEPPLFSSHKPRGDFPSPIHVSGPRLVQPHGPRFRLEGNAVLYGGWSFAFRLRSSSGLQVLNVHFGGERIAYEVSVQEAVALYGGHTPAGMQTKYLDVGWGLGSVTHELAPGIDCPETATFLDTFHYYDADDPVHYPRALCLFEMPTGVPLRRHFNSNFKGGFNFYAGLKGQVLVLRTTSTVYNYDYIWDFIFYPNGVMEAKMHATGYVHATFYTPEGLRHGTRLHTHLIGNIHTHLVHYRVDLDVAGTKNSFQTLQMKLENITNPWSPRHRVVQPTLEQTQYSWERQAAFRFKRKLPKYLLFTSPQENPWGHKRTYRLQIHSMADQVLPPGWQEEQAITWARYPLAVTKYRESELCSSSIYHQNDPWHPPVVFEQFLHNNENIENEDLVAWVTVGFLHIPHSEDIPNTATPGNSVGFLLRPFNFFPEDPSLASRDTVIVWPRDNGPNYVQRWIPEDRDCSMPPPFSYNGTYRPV
Summary of the method: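 Inhibition of recombinant human DAO (diamine oxidase, R&D systems) was assessed with the Amplex Red Hydrogen Peroxide Assay Kit. Hydrogen peroxide produced from 1 mM putrescine was detected through an HRP-coupled reaction that converts Amplex Red into fluorescent resorufin, read at 544 nm excitation and 590 nm emission. IC50 values came from four-parameter logistic fits in GraphPad Prism.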

[2] = biological target: T3, recombinant human MAO-A (monoamine oxidase-A) (Homo sapiens, UniProt P21397); assay: Activity on recombinant human MAO-A, Amplex Red method, 0.5 mM tyramine substrate; settings: 0.5 mM tyramine, read-out: Inhibitory Activity (IC50, nM) MAO-A
T3 construct: purchased Sigma-Aldrich
T3 sequence (P21397 1-527): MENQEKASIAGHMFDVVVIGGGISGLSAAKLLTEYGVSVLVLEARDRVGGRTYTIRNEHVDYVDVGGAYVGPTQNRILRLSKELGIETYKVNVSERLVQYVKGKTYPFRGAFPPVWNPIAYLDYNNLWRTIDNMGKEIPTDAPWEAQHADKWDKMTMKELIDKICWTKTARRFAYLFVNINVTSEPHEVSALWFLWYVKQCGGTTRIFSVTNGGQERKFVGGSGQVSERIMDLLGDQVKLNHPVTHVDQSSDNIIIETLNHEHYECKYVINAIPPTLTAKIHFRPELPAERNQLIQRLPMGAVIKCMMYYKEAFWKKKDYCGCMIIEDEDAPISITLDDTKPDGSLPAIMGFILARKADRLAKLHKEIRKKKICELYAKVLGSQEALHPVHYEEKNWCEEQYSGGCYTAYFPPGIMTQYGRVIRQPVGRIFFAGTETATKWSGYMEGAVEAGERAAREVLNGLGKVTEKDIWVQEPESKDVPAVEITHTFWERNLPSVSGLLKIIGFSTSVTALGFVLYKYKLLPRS
Summary of the method: (§1)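 8-point, 1:3 dose-response, four-parameter logistic IC50 from reduction in fluorescence rate versus DMSO control. HRP/Amplex Red detection of H2O2 (ex 544, em 590 nm) after 30 min, 37 °C compound–enzyme preincubation in pH 7.4 phosphate buffer. MAO-A substrate: 0.5 mM tyramine; MAO-B: 1 mM benzylamine.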

[3] = biological target: T4, recombinant human MAO-B (monoamine oxidase-B) (Homo sapiens, UniProt P27338); assay: Activity on recombinant human MAO-B, Amplex Red method, 1 mM benzylamine substrate; settings: 1 mM benzylamine, read-out: Inhibitory Activity (IC50, nM) MAO-B
T4 construct: purchased Sigma-Aldrich
T4 sequence (P27338 1-520): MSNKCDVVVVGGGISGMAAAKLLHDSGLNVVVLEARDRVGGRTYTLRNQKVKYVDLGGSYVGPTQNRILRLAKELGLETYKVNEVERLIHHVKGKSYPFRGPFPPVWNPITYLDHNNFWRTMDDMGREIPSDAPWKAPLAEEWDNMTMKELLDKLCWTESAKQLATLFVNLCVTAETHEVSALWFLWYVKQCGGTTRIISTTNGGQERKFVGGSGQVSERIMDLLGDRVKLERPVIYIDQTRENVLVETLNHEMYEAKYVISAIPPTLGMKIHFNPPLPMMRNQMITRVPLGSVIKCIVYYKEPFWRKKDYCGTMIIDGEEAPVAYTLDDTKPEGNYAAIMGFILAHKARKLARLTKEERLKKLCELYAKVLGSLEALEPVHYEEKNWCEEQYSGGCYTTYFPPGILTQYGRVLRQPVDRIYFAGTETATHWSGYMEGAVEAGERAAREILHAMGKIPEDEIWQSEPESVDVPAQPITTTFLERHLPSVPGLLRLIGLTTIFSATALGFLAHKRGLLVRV
Summary of the method: as §1

Row | Compound | IC50 (recombinant human VAP-1) | IC50 [1] | IC50 [2] | IC50 [3]
1 | CN(C)S(=O)(=O)c1ccc(-c2cccc(-n3cnn(C/C(=C/F)CN)c3=O)c2)cc1 [Example 55, 3′-{1-[(2E)-2-(aminomethyl)-3-fluoroprop-2-en-1-yl]-5-oxo-1,5-dihydro-4H-1,2,4-triazol-4-yl}-N,N-dimethylbiphenyl-4-sulfonamide hydrochloride] | 0.3 nM | 1 nM | > 100000 nM | 1500 nM
2 | CC(=O)Nc1ccc(-c2cccc(-n3cnn(C/C(=C\F)CN)c3=O)c2)cc1 [Example 56, N-(3′-{1-[(2Z)-2-(aminomethyl)-3-fluoroprop-2-en-1-yl]-5-oxo-1,5-dihydro-4H-1,2,4-triazol-4-yl}biphenyl-4-yl)acetamide hydrochloride] | 0.75 nM | 110 nM | 5100 nM | > 10000 nM
3 | NC/C(=C/F)Cn1ncn(-c2cccc(-c3ccc(-c4nnc[nH]4)cc3)c2)c1=O [Example 58, 2-[(2Z)-2-(aminomethyl)-3-fluoroprop-2-en-1-yl]-4-[4′-(4H-1,2,4-triazol-3-yl)biphenyl-3-yl]-2,4-dihydro-3H-1,2,4-triazol-3-one] | 0.63 nM | < 100 nM | > 100000 nM | > 10000 nM
4 | NC/C(=C\F)Cn1ncn(-c2cccc(-c3ccc(-c4nnc[nH]4)cc3)c2)c1=O [Example 59, 2-[(2E)-2-(aminomethyl)-3-fluoroprop-2-en-1-yl]-4-[4′-(4H-1,2,4-triazol-3-yl)biphenyl-3-yl]-2,4-dihydro-3H-1,2,4-triazol-3-one] | 0.62 nM | < 100 nM | > 100000 nM | > 10000 nM
5 | NC/C(=C\F)Cn1ncn(-c2cccc(-c3ccc(-c4ncon4)cc3)c2)c1=O [Example 61, 2-[(2E)-2-(aminomethyl)-3-fluoroprop-2-en-1-yl]-4-[4′-(1,2,4-oxadiazol-3-yl)biphenyl-3-yl]-2,4-dihydro-3H-1,2,4-triazol-3-one] | 0.65 nM | < 100 nM | 62000 nM | 998 nM
6 | NC/C(=C\F)Cn1ncn(-c2cccc(-c3cccc(-c4ncon4)c3)c2)c1=O [Example 62, 2-[(2E)-2-(aminomethyl)-3-fluoroprop-2-en-1-yl]-4-[3′-(1,2,4-oxadiazol-3-yl)biphenyl-3-yl]-2,4-dihydro-3H-1,2,4-triazol-3-one] | 0.53 nM | < 100 nM | > 100000 nM | 117 nM
7 | NC/C(=C\F)Cn1ncn(-c2cccc(-c3ccc(-c4noc(C5CC5)n4)cc3)c2)c1=O [Example 63, 2-[(2E)-2-(aminomethyl)-3-fluoroprop-2-en-1-yl]-4-[4′-(5-cyclopropyl-1,2,4-oxadiazol-3-yl)biphenyl-3-yl]-2,4-dihydro-3H-1,2,4-triazol-3-one hydrochloride] | 1 nM | < 30 nM | > 100000 nM | > 10000 nM
8 | CC(C)c1nc(-c2ccc(-c3cccc(-n4cnn(C/C(=C/F)CN)c4=O)c3)cc2)no1 [Example 64, 2-[(2E)-2-(aminomethyl)-3-fluoroprop-2-en-1-yl]-4-{4′-[5-(propan-2-yl)-1,2,4-oxadiazol-3-yl]biphenyl-3-yl}-2,4-dihydro-3H-1,2,4-triazol-3-one hydrochloride] | 3.2 nM | < 30 nM | 6030 nM | > 10000 nM

Results, then the compound that gave them:

Row | IC50 (recombinant human VAP-1) | IC50 [1] | IC50 [2] | IC50 [3] | Compound
9 | 2 nM | > 10000 nM | > 100000 nM | 5600 nM | CN(C)c1ccc(-c2cccc(-n3cnn(C/C(=C/F)CN)c3=O)c2)cc1 [Example 51, 2-[(2E)-2-(aminomethyl)-3-fluoroprop-2-en-1-yl]-4-[4′-(dimethylamino)biphenyl-3-yl]-2,4-dihydro-3H-1,2,4-triazol-3-one hydrochloride]
10 | 1.2 nM | 24 nM | 50000 nM | 3600 nM | CC(C)Sc1ccc(-c2cccc(-n3cnn(C/C(=C/F)CN)c3=O)c2)cc1 [Example 52, 2-[(2E)-2-(aminomethyl)-3-fluoroprop-2-en-1-yl]-4-[4′-(propan-2-ylsulfanyl)biphenyl-3-yl]-2,4-dihydro-3H-1,2,4-triazol-3-one hydrochloride]
11 | 0.4 nM | < 100 nM | > 100000 nM | > 10000 nM | CS(=O)(=O)c1ccc(-c2cccc(-n3cnn(C/C(=C/F)CN)c3=O)c2)cc1 [Example 54, 2-[(2E)-2-(aminomethyl)-3-fluoroprop-2-en-1-yl]-4-[4′-(methylsulfonyl)biphenyl-3-yl]-2,4-dihydro-3H-1,2,4-triazol-3-one hydrochloride]
12 | 0.38 nM | < 100 nM | 1250 nM | > 10000 nM | CC(=O)Nc1ccc(-c2cccc(-n3cnn(C/C(=C/F)CN)c3=O)c2)cc1 [Example 57, N-(3′-{1-[(2E)-2-(aminomethyl)-3-fluoroprop-2-en-1-yl]-5-oxo-1,5-dihydro-4H-1,2,4-triazol-4-yl}biphenyl-4-yl)acetamide hydrochloride]
